{"source": "patent US20230038646A1", "about": "“NOVEL AND POTENT JAK/STAT INHIBITOR” (Texas Tech University System, priority 2020, published 2023)", "key": {"[1]": {"tested_on": "Daoy (medulloblastoma), IMR32 (neuroblastoma) and KNS42 (glioblastoma) cells", "assay": "Proliferation / survival of brain cancer cells (FIGS. 1A-1C)", "type": "cell-based", "from_the_text": "Moxidectin treatment suppresses the proliferation of brain cancer cells."}, "[2]": {"tested_on": "Daoy, UW228, ONS76, UW246, PFSK1 (medulloblastoma), IMR32, SF268, SF295 (glioblastoma), SK-N-AS (neuroblastoma) cells", "assay": "Proliferation / survival of brain cancer cell line panel (FIGS. 5A-5I)", "type": "cell-based"}, "[3]": {"tested_on": "Daoy, KNS42 and IMR32 brain cancer cells", "assay": "Annexin V/FITC apoptosis assay (FIGS. 2A-2C)", "type": "cell-based", "method": "The percentage of apoptotic cells with 20 µM moxidectin treatment ranged from 90-100% in all the brain cancer cell lines tested (FIGS. 2A-2C).\nInduction of apoptosis by moxidectin. The mode of cell death caused by moxidectin treatment was determined by Annexin V/FITC assay in Daoy, KNS42 and IMR32 brain cancer cells. […] 15 µM moxidectin induced -80% apoptosis in Daoy, KNS42 and IMR32 brain cancer cell lines. The percentage of apoptotic cells with 20 µM moxidectin treatment ranged from 90-100% in all the brain cancer cell lines tested (FIGS. 2A-2C). Induction of apoptosis by moxidectin treatment in these cell lines was further assessed by increase in the cleavage of caspase 3 and PARP (FIG. 3)."}, "[4]": {"tested_on": "Daoy, UW228, ONS76, UW426, PFSK1 and IMR32 brain cancer cells", "assay": "Annexin V/FITC apoptosis assay (FIGS. 6A-6F)", "type": "cell-based", "method": "(§1) The mode of cell death caused by moxidectin treatment was determined by Annexin V/FITC assay in Daoy, UW228, ONS76, UW426, PFSK1 and IMR32 brain cancer cells (FIGS. 6A-6F, resepectively). […] 15 µM moxidectin induced -80% apoptosis in Daoy and IMR32 brain cancer cell lines. The percentage of apoptotic cells with 20 µM moxidectin treatment ranged from 90-100% in all the brain cancer cell lines. Induction of apoptosis by moxidectin treatment in these cell lines was further assessed by increase in the cleavage of caspase 3 and PARP (FIG. 3).\nas §1, with “FIGS. 6A-6F show the induction of apoptosis by moxidectin. The mode” for “The mode”, “PARP (FIG. 7).” for “PARP (FIG. 3).”"}, "[5]": {"tested_on": "Janus Kinase 2 (JAK2)", "assay": "Western blotting of JAK2 in treated brain cancer cells", "type": "cell-based", "settings": "Daoy, IMR32, KNS42, 0, 10, 15 and 20 µM, 48 hours", "method": "Daoy, IMR32, and KNS42 cells were treated with 0, 10, 15 and 20 µM moxidectin for 48 hours and evaluated by western blotting.\n(§2) Moxidectin inhibits JAK-STAT signaling. In order to delineate the mechanism by which moxidectin mediates its anti-cancer effects in brain cancer cell lines, Daoy, IMR32, and KNS42 cells were treated with 0, 10, 15 and 20 µM moxidectin for 48 hours and evaluated by western blotting. […] It has been reported that, upon activation (phosphorylation) JAK2 activates multiple downstream transcription factors one of which is STAT3. Hyper activation of STAT3 in cancer cells is strongly attributed to evasion of apoptosis and transcriptional activation of anti-apoptotic proteins such as Bcl-2 and c-myc.\n(§3) It has been reported that, upon activation (phosphorylation) JAK2 activates multiple downstream transcription factors one of which is STAT3. Hyperactivation of STAT3 in cancer cells is strongly attributed to evasion of apoptosis and transcriptional activation of anti-apoptotic proteins such as Bcl-2 and c-myc."}, "[6]": {"tested_on": "STAT3", "assay": "Western blotting of STAT3 phosphorylation in treated brain cancer cells", "type": "cell-based", "settings": "Daoy, IMR32, KNS42; 0, 10, 15 and 20 µM, 48 hours", "method": "as §2, §3"}, "[7]": {"tested_on": "Bcl-2", "assay": "Western blotting of Bcl-2 expression in treated brain cancer cells", "type": "cell-based", "settings": "Daoy, IMR32 and KNS42; 48 hours", "method": "as §2\n(§4) Moreover, moxidectin increased the cleavage of caspase 3 and PARP as an indication of apoptosis, a primary mode of cell death (FIG. 3).\n(§5) Moreover, moxidectin increased the cleavage of caspase 3 and PARP as an indication of apoptosis, a primary mode of cell death (FIG. 7)."}, "[8]": {"tested_on": "caspase 3 and PARP", "assay": "Western blotting of caspase 3 and PARP cleavage in treated brain cancer cells", "type": "cell-based", "settings": "Daoy, IMR32 and KNS42; 48 hours", "method": "as §2, §4, §5"}, "[9]": {"tested_on": "Daoy cells (medulloblastoma)", "assay": "Subcutaneously implanted Daoy tumor growth in mice", "type": "in vivo", "settings": "subcutaneous Daoy", "method": "(§6) Moxidectin suppresses the growth of subcutaneously implanted brain cancer cells. To evaluate the ability of moxidectin in inhibiting the growth of brain tumor cells in vivo, ~ 4 million Daoy cells were injected subcutaneously into the right flank of the mice. Once the tumor cells started growing and the tumor volume reached ~ 70 mm^3, mice were randomized into four groups. Control group received the vehicle whereas the treatment group received 2.5 mg/kg, 5 mg/kg and 10 mg/kg moxidectin once every day. The tumor readings were taken twice a week throughout the course of the experiment using Vernier caliper. […] Similarly, 2.5 mg/kg and 5 mg/kg moxidectin suppressed Daoy tumor growth by 45% and 60% respectively (FIG. 4B).\nas §6, with “4C). […] In another experiment, ~0.3 million Daoy luc cells were injected intracranially in the brain of athymic nude mice. The mice were given 2.5 mg/kg for 33 days. Moxidectin was able to inhibit -65% of intracranially implanted medulloblastoma tumors. […] Additionally, ~ 3 million SK-N-AS neuroblastoma cells were injected subcutaneously in the right flank of the mice. Mice were randomized on day 10. Treatment group received 3.5 mg/kg moxidectin. The experiment was terminated on day 23. Moxidectin was able to inhibit 60% of subcutaneously implanted neuroblastoma tumors (FIG. 4D).” for “4B).”"}, "[10]": {"tested_on": "Daoy luc cells (medulloblastoma)", "assay": "Intracranially implanted Daoy luc tumors in mice", "type": "in vivo, athymic nude mice", "settings": "2.5 mg/kg for 33 days; intracranial Daoy luc"}, "[11]": {"tested_on": "SK-N-AS neuroblastoma cells", "assay": "Subcutaneously implanted SK-N-AS neuroblastoma tumors in mice", "type": "in vivo", "settings": "3.5 mg/kg; randomized day 10, terminated day 23"}, "[12]": {"settings": "varying concentrations, concentration and time-dependent"}, "[13]": {"settings": "treatment for 48 hours, all brain cancer cells"}}, "data": [{"compound": "CO/N=C1\\C[C@]2(C[C@@H]3C[C@@H](C/C=C(\\C)C[C@@H](C)/C=C/C=C4\\CO[C@@H]5[C@H](O)C(C)=C[C@@H](C(=O)O3)[C@]45O)O2)O[C@H](/C(C)=C/C(C)C)[C@H]1C", "note": "[Moxidectin]", "values": [{"measurement": "IC50", "setting": "[1]; Daoy, IMR32 and KNS42, 24, 48 and 72-hour time point", "value": "11 to 16", "unit": "µM"}, {"measurement": "survival of cells", "setting": "[1]; [12]", "value": "significant reduction"}, {"measurement": "IC50", "setting": "[2]; all brain cancer cell lines, 24, 48 and 72-hour time point", "value": "9.7 to 30", "unit": "µM"}, {"measurement": "survival of cells", "setting": "[2]; [12]", "value": "significant reduction"}, {"measurement": "apoptotic effects", "setting": "[3]; 10 µM, 48 hours, all three cell lines", "value": "minimal apoptotic effects"}, {"measurement": "apoptosis induced", "setting": "[3]; 15 µM, 48 hours, Daoy, KNS42 and IMR32", "value": 80, "unit": "%"}, {"measurement": "percentage of apoptotic cells", "setting": "[3]; 20 µM, 48 hours, all cell lines tested", "value": "90-100%"}, {"measurement": "apoptosis", "setting": "[3]; [13]", "value": "significant increase"}, {"measurement": "apoptotic effects", "setting": "[4]; 10 µM, 48 hours, all cell lines tested", "value": "minimal apoptotic effects"}, {"measurement": "apoptosis induced", "setting": "[4]; 15 µM, 48 hours, Daoy and IMR32", "value": 80, "unit": "%"}, {"measurement": "percentage of apoptotic cells", "setting": "[4]; 20 µM, 48 hours, all cell lines", "value": "90-100%"}, {"measurement": "apoptosis", "setting": "[4]; [13]", "value": "significant increase"}, {"measurement": "protein level of JAK2", "setting": "[5]", "value": "remained unchanged"}, {"measurement": "phosphorylation of JAK2 at Tyr1007/1008", "setting": "[5]; concentration-dependent", "value": "reduced"}, {"measurement": "phosphorylation of STAT3 at Tyr705", "setting": "[6]", "value": "reduced"}, {"measurement": "expression of anti-apoptotic protein Bcl-2", "setting": "[7]", "value": "reduced"}, {"measurement": "cleavage of caspase 3 and PARP", "setting": "[8]", "value": "increased"}, {"measurement": "suppression of tumor growth", "setting": "[9]; 2.5 mg/kg once every day", "value": 45, "unit": "%"}, {"measurement": "suppression of tumor growth", "setting": "[9]; 5 mg/kg once every day", "value": 60, "unit": "%"}, {"measurement": "suppression of tumor growth", "setting": "[9]; 10 mg/kg once every day", "value": 90, "unit": "%"}, {"measurement": "inhibition of intracranially implanted tumors", "setting": "[10]", "value": 65, "unit": "%"}, {"measurement": "inhibition of subcutaneously implanted neuroblastoma tumors", "setting": "[11]", "value": 60, "unit": "%"}]}]}
